{
  "source": "patent US10266526B2",
  "about": "“Substituted 1,2,3-triazoles as SMYD inhibitors for treating cancer” (EPIZYME, INC., priority 2014, dated 2019)",
  "data": [
    {"molecular_target": "SMYD3 (Homo sapiens (Human), UniProt Q9H7B4)", "sequence (Q9H7B4 whole entry)": "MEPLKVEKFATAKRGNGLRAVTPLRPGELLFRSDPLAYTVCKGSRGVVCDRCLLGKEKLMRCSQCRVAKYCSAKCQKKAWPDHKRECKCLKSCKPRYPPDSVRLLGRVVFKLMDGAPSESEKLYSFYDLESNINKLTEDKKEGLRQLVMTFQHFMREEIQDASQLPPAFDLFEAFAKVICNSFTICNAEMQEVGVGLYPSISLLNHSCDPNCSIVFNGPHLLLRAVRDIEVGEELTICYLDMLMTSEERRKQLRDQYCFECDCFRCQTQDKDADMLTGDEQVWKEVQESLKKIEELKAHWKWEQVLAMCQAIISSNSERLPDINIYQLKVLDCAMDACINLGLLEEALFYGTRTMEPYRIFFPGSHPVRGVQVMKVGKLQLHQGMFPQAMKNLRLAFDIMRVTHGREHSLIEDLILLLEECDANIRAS", "test": "SMYD3 biochemical assay (SMYD3 enzyme assay on MEKK2 protein substrate, 3H-SAM scintillation proximity assay)", "conditions": "Table 1A; average of n = 1 to n = 50; read-out: SMYD3 Biochem IC50", "method_in_brief": "(§1)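 Native full-length human SMYD3, expressed in E. coli, was preincubated with compound for 30 min at room temperature in 25 mM Tris-Cl pH 8.0, 1 mM TCEP, 0.005% BSG and 0.005% Tween 20. ³H-SAM plus GST-MEKK2 then started the reaction. It was stopped with unlabeled SAM (100 uM final), and methylated MEKK2 was read by SPA.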", "units": {"IC50": "µM"}, "values": [
      {"compound": "Cc1ncc(C(=O)N[C@H]2CC[C@H](N)CC2)[nH]1", "note": "[compound 522, N-((1r,4r)-4-aminocyclohexyl)-2-methyl-1H-imidazole-5-carboxamide]", "IC50": "> 50"}
    ]},
    {"molecular_target": "SMYD3 (Homo sapiens (Human), UniProt Q9H7B4)", "test": "SMYD3 biochemical assay (SMYD3 enzyme assay on MEKK2 protein substrate, 3H-SAM scintillation proximity assay)", "conditions": "read-out: SMYD3 Biochem IC50", "method_in_brief": "as §1", "units": {"IC50": "µM"}, "values": [
      {"compound": "CC(NC(=O)Cc1cccc(C(F)(F)F)c1)C1CCN(C(=O)[C@H](C)N)CC1", "note": "(stereo partly drawn) [compound 476, N-(1-(1-(L-alanyl)piperidin-4-yl)ethyl)-2-(3-(trifluoromethyl)phenyl)acetamide]", "IC50": 51.1},
      {"compound": "NCCC(=O)N[C@H]1CC[C@H](NC(=O)Cc2cccc(C(F)(F)F)c2)CC1", "note": "[compound 477, 3-amino-N-((1r,4r)-4-(2-(3-(trifluoromethyl)phenyl)acetamido)cyclohexyl)propanamide]", "IC50": 22.8},
      {"compound": "Cc1nc2ccccc2c(C(=O)N[C@H]2CC[C@H](NC(=O)CCN)CC2)c1N", "note": "[compound 478, 3-amino-N-((1r,4r)-4-(3-aminopropanamido)cyclohexyl)-2-methylquinoline-4-carboxamide]", "IC50": 31.6},
      {"compound": "NCCC(=O)N[C@H]1CC[C@H](NC(=O)c2cc3cccc(O)c3cc2O)CC1", "note": "[compound 479, N-((1r,4r)-4-(3-aminopropanamido)cyclohexyl)-3,5-dihydroxy-2-naphthamide]", "IC50": 5.02},
      {"compound": "N[C@H]1CC[C@H](NC(=O)c2ncccc2O)CC1", "note": "[compound 480, N-((1r,4r)-4-aminocyclohexyl)-3-hydroxypicolinamide]", "IC50": "> 100"},
      {"compound": "NCCC(=O)N[C@H]1CC[C@H](NC(=O)C2=NNC(=O)CC2)CC1", "note": "[compound 481, N-((1r,4r)-4-(3-aminopropanamido)cyclohexyl)-6-oxo-1,4,5,6-tetrahydropyridazine-3-carboxamide]", "IC50": 15.1},
      {"compound": "NCCC(=O)N[C@H]1CC[C@H](NC(=O)/C=C/c2c[nH]cn2)CC1", "note": "[compound 482, (E)-N-((1r,4r)-4-(3-aminopropanamido)cyclohexyl)-3-(1H-imidazol-4-yl)acrylamide]", "IC50": 71.1},
      {"compound": "NCCC(=O)N1CCC(CC(=O)N2CCC3NC(=O)CC3C2)CC1", "note": "(centres unmarked) [compound 483, 5-(2-(1-(3-aminopropanoyl)piperidin-4-yl)acetyl)octahydro-2H-pyrrolo[3,2-c]pyridin-2-one]", "IC50": 10.2},
      {"compound": "N[C@H]1CC[C@H](NC(=O)c2noc(C3CC3)n2)CC1", "note": "[compound 484, N-((1r,4r)-4-aminocyclohexyl)-5-cyclopropyl-1,2,4-oxadiazole-3-carboxamide]", "IC50": 85.7},
      {"compound": "NCCC(=O)N[C@H]1CC[C@H](NC(=O)c2noc(C3CC3)n2)CC1", "note": "[compound 485, N-((1r,4r)-4-(3-aminopropanamido)cyclohexyl)-5-cyclopropyl-1,2,4-oxadiazole-3-carboxamide]", "IC50": 12.9},
      {"compound": "CC(C)(CNC(=O)CN)CNS(=O)(=O)c1ccc2c(c1)CC(=O)N2", "note": "[compound 486, 2-amino-N-(2,2-dimethyl-3-((2-oxoindoline)-5-sulfonamido)propyl)acetamide]", "IC50": 18.8},
      {"compound": "N[C@H]1CC[C@H](NC(=O)c2ccc3c(c2)CNC3=O)CC1", "note": "[compound 487, N-((1r,4r)-4-aminocyclohexyl)-1-oxoisoindoline-5-carboxamide]", "IC50": 37.9},
      {"compound": "CC(NC(=O)c1ccc2c(c1)C(=O)C(=O)N2)C1CCN(C(=O)[C@H](C)N)CC1", "note": "(stereo partly drawn) [compound 488, N-(1-(1-(L-alanyl)piperidin-4-yl)ethyl)-2,3-dioxoindoline-5-carboxamide]", "IC50": 14.1},
      {"compound": "Cc1nc2ccccc2c(C(=O)NC(C)C2CCN(C(=O)[C@H](C)N)CC2)c1N", "note": "(stereo partly drawn) [compound 489, N-(1-(1-(L-alanyl)piperidin-4-yl)ethyl)-3-amino-2-methylquinoline-4-carboxamide]", "IC50": 31.6},
      {"compound": "N[C@H]1CC[C@H](NC(=O)c2cc3c(cc2Cl)NC(=O)C3)CC1", "note": "[compound 492, N-((1r,4r)-4-aminocyclohexyl)-6-chloro-2-oxoindoline-5-carboxamide]", "IC50": 1.59},
      {"compound": "N[C@H]1CC[C@H](NC(=O)c2cncnc2O)CC1", "note": "[compound 493, N-((1r,4r)-4-aminocyclohexyl)-4-hydroxypyrimidine-5-carboxamide]", "IC50": "> 50"},
      {"compound": "CC(NC(=O)/C=C/c1c[nH]cn1)C1CCN(C(=O)[C@H](C)N)CC1", "note": "(stereo partly drawn) [compound 494, (E)-N-(1-(1-(L-alanyl)piperidin-4-yl)ethyl)-3-(1H-imidazol-4-yl)acrylamide]", "IC50": "> 100"},
      {"compound": "N[C@H]1CC[C@H](NC(=O)/C=C/c2c[nH]cn2)CC1", "note": "[compound 495, (E)-N-((1r,4r)-4-aminocyclohexyl)-3-(1H-imidazol-4-yl)acrylamide]", "IC50": "> 100"},
      {"compound": "CC(NC(=O)c1cc2cn[nH]c2cn1)C1CCN(C(=O)[C@H](C)N)CC1", "note": "(stereo partly drawn) [compound 496, N-(1-(1-(L-alanyl)piperidin-4-yl)ethyl)-1H-pyrazolo[3,4-c]pyridine-5-carboxamide]", "IC50": 6.57},
      {"compound": "N[C@H]1CC[C@H](NC(=O)c2cc3cn[nH]c3cn2)CC1", "note": "[compound 497, N-((1r,4r)-4-aminocyclohexyl)-1H-pyrazolo[3,4-c]pyridine-5-carboxamide]", "IC50": 35.7},
      {"compound": "CC(NC(=O)c1nc2ccc(F)cc2s1)C1CCN(C(=O)[C@H](C)N)CC1", "note": "(stereo partly drawn) [compound 498, N-(1-(1-(L-alanyl)piperidin-4-yl)ethyl)-6-fluorobenzo[d]thiazole-2-carboxamide]", "IC50": 51},
      {"compound": "NCCC(=O)N[C@H]1CC[C@H](NC(=O)c2nc3ccc(F)cc3s2)CC1", "note": "[compound 499, N-((1r,4r)-4-(3-aminopropanamido)cyclohexyl)-6-fluorobenzo[d]thiazole-2-carboxamide]", "IC50": 86.3},
      {"compound": "N[C@H]1CC[C@H](NC(=O)c2nc3ccc(F)cc3s2)CC1", "note": "[compound 500, N-((1r,4r)-4-aminocyclohexyl)-6-fluorobenzo[d]thiazole-2-carboxamide]", "IC50": "> 100"},
      {"compound": "NC(=O)Cn1cc(C(=O)N[C@H]2CC[C@H](N)CC2)nn1", "note": "[compound 501, 1-(2-amino-2-oxoethyl)-N-((1r,4r)-4-aminocyclohexyl)-1H-1,2,3-triazole-4-carboxamide]", "IC50": 50},
      {"compound": "N[C@H]1CC[C@H](NC(=O)c2ncc[nH]2)CC1", "note": "[compound 502, N-((1r,4r)-4-aminocyclohexyl)-1H-imidazole-2-carboxamide]", "IC50": "> 100"},
      {"compound": "NCCC(=O)N[C@H]1CC[C@H](NC(=O)c2ccc3c(c2)CNC3=O)CC1", "note": "[compound 503, N-((1r,4r)-4-(3-aminopropanamido)cyclohexyl)-1-oxoisoindoline-5-carboxamide]", "IC50": "> 100"},
      {"compound": "NCCC(=O)N[C@H]1CC[C@H](NC(=O)c2ccc3c(c2)C(=O)C(=O)N3)CC1", "note": "[compound 504, N-((1r,4r)-4-(3-aminopropanamido)cyclohexyl)-2,3-dioxoindoline-5-carboxamide]", "IC50": 5.38},
      {"compound": "NC1CCC(NC(=O)c2cccc3c2NC(=O)C3)CC1", "note": "(centres unmarked) [compound 506, N-(4-aminocyclohexyl)-2-oxoindoline-7-carboxamide]", "IC50": 42.3},
      {"compound": "Cn1ncnc1C(=O)N[C@H]1CC[C@H](N)CC1", "note": "[compound 507, N-((1r,4r)-4-aminocyclohexyl)-1-methyl-1H-1,2,4-triazole-5-carboxamide]", "IC50": "> 100"},
      {"compound": "Nc1n[nH]c(C(=O)N[C@H]2CC[C@H](N)CC2)n1", "note": "[compound 508, 3-amino-N-((1r,4r)-4-aminocyclohexyl)-1H-1,2,4-triazole-5-carboxamide]", "IC50": "> 50"},
      {"compound": "CC(NC(=O)c1cncnc1O)C1CCN(C(=O)[C@H](C)N)CC1", "note": "(stereo partly drawn) [compound 509, N-(1-(1-(L-alanyl)piperidin-4-yl)ethyl)-4-hydroxypyrimidine-5-carboxamide]", "IC50": "> 50"},
      {"compound": "NCCC(=O)N[C@H]1CC[C@H](NC(=O)c2cncnc2O)CC1", "note": "[compound 510, N-((1r,4r)-4-(3-aminopropanamido)cyclohexyl)-4-hydroxypyrimidine-5-carboxamide]", "IC50": "> 50"},
      {"compound": "CC(NC(=O)c1ncccc1O)C1CCN(C(=O)[C@H](C)N)CC1", "note": "(stereo partly drawn) [compound 511, N-(1-(1-(L-alanyl)piperidin-4-yl)ethyl)-3-hydroxypicolinamide]", "IC50": "> 50"},
      {"compound": "NCCC(=O)N[C@H]1CC[C@H](NC(=O)c2ncccc2O)CC1", "note": "[compound 512, N-((1r,4r)-4-(3-aminopropanamido)cyclohexyl)-3-hydroxypicolinamide]", "IC50": "> 50"},
      {"compound": "CC(NC(=O)c1cncc(O)c1)C1CCN(C(=O)[C@H](C)N)CC1", "note": "(stereo partly drawn) [compound 513, N-(1-(1-(L-alanyl)piperidin-4-yl)ethyl)-5-hydroxynicotinamide]", "IC50": "> 50"},
      {"compound": "NCCC(=O)N[C@H]1CC[C@H](NC(=O)c2cncc(O)c2)CC1", "note": "[compound 514, N-((1r,4r)-4-(3-aminopropanamido)cyclohexyl)-5-hydroxynicotinamide]", "IC50": "> 50"},
      {"compound": "N[C@H]1CC[C@H](NC(=O)c2cncc(O)c2)CC1", "note": "[compound 515, N-((1r,4r)-4-aminocyclohexyl)-5-hydroxynicotinamide]", "IC50": "> 50"},
      {"compound": "NCCC(=O)N[C@H]1CC[C@H](NC(=O)c2cn(CC(N)=O)nn2)CC1", "note": "[compound 516, 1-(2-amino-2-oxoethyl)-N-((1r,4r)-4-(3-aminopropanamido)cyclohexyl)-1H-1,2,3-triazole-4-carboxamide]", "IC50": "> 50"},
      {"compound": "NC1CCC(NC(=O)c2c[nH]cn2)CC1", "note": "(centres unmarked) [compound 517, N-(4-aminocyclohexyl)-1H-imidazole-4-carboxamide]", "IC50": "> 50"},
      {"compound": "NCCC(=O)NC1CCC(NC(=O)c2ncc[nH]2)CC1", "note": "(centres unmarked) [compound 518, N-(4-(3-aminopropanamido)cyclohexyl)-1H-imidazole-2-carboxamide]", "IC50": "> 50"},
      {"compound": "Cc1cc2cc(C(=O)N[C@H]3CC[C@H](NC(=O)CCN)CC3)ccc2[nH]1", "note": "[compound 519, N-((1r,4r)-4-(3-aminopropanamido)cyclohexyl)-2-methyl-1H-indole-5-carboxamide]", "IC50": "> 50"},
      {"compound": "Cc1cc2cc(C(=O)N[C@H]3CC[C@H](N)CC3)ccc2[nH]1", "note": "[compound 520, N-((1r,4r)-4-aminocyclohexyl)-2-methyl-1H-indole-5-carboxamide]", "IC50": "> 50"},
      {"compound": "N[C@H]1CC[C@H](NC(=O)c2c[nH]cn2)CC1", "note": "[compound 521, N-((1r,4r)-4-aminocyclohexyl)-1H-imidazole-4-carboxamide]", "IC50": "> 50"}
    ]}
  ]
}
